In patent US20260285816A1, “Piperazinyl-Modified Quinazolinyl-Aryl Urea Derivative, And Preparation Method And Use Thereof” (Guangxi Normal University, priority 2025, published 2026):
Where two headings read alike, the source gives them in different places.

How the values were obtained:
[1] = system: HeLa cells; assay: CCK-8 anti-proliferative assay, HeLa; assay type: cell-based, human; conditions: Homo sapiens, HeLa; Table 12; co-incubated 48 h; read-out: Anti-proliferative activity (IC50 ± standard deviation) HeLa
Method in brief: (§1)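 Cells seeded at 5,000/well, grown at 37° C, 5% CO2 to 70% confluence, then treated in triplicate with 1-30 μM compound (nine concentrations) for designated times.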

[2] = system: Hep G2 cells; assay: CCK-8 anti-proliferative assay, Hep G2; assay type: cell-based, human; conditions: Homo sapiens, HepG2; Table 12; co-incubated 48 h; read-out: Anti-proliferative activity (IC50 ± standard deviation) Hep G2
Method in brief: (§2)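 Cells seeded at 5,000/well were grown at 37° C. under 5% CO2 to 70% confluency, then exposed in triplicate to 1–30 μM compound (1, 2, 4, 6, 8, 12, 16, 24, 30 μM) for designated durations. CCK-8 was added for 1–4 h, OD read at 450 nm, and IC50 derived from inhibition versus control.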

[3] = system: UM-UC-3 cells; assay: CCK-8 anti-proliferative assay, UM-UC-3; assay type: cell-based, human; conditions: Homo sapiens, UMUC3; Table 10; co-incubated 48 h; read-out: Anti-proliferative activity (IC50 ± standard deviation) UM-UC-3
Method in brief: as §1

[4] = system: BxPC-3 cells; assay: CCK-8 anti-proliferative assay, BxPC-3; assay type: cell-based, human; conditions: Homo sapiens, BXPC-3; Table 11; co-incubated 48 h; read-out: Anti-proliferative activity (IC50 ± standard deviation) BxPC-3
Method in brief: as §2

[5] = system: J82 cells; assay: CCK-8 anti-proliferative assay, J82; assay type: cell-based, human; conditions: Homo sapiens, J82; Table 10; co-incubated 48 h; read-out: Anti-proliferative activity (IC50 ± standard deviation) J82
Method in brief: as §1

[6] = system: MCF-7 cells; assay: CCK-8 anti-proliferative assay, MCF-7; assay type: cell-based, human; conditions: Homo sapiens, MCF7; Table 12; co-incubated 48 h; read-out: Anti-proliferative activity (IC50 ± standard deviation) MCF-7
Method in brief: as §1

[7] = system: MG-63 cells; assay: CCK-8 anti-proliferative assay, MG-63; assay type: cell-based, human; conditions: Homo sapiens, MG-63
Method in brief: as §2

[8] = system: T24 cells; assay: CCK-8 anti-proliferative assay, T24; assay type: cell-based, human; conditions: Homo sapiens, T-24; Table 10; co-incubated 48 h; read-out: Anti-proliferative activity (IC50 ± standard deviation) T24
Method in brief: as §2

[9] = system: A549 cells; assay: CCK-8 anti-proliferative assay, A549; assay type: cell-based, human; conditions: Homo sapiens, A549; Table 13; co-incubated 48 h; read-out: Anti-proliferative activity (IC50 ± standard deviation) A549
Method in brief: as §1

[10] = system: immortalized ureteral epithelial cells (SV-HUC-1); assay: CCK-8 anti-proliferative assay, normal cells SV-HUC-1; assay type: cell-based, human; conditions: Homo sapiens, SV-HUC1; Table 13; normal cells; co-incubated 48 h; read-out: Anti-proliferative activity (IC50 ± standard deviation) SV-HUC-1
Method in brief: as §1

[11] = system: SK-OV-3 cells; assay: CCK-8 anti-proliferative assay, SK-OV-3; assay type: cell-based, human; conditions: Homo sapiens, SK-OV-3; Table 12; co-incubated 48 h; read-out: Anti-proliferative activity (IC50 ± standard deviation) SK-OV-3
Method in brief: as §1

[12] = system: PANC-1 cells; assay: CCK-8 anti-proliferative assay, PANC-1; assay type: cell-based, human; conditions: Homo sapiens, PANC-1; Table 11; co-incubated 48 h; read-out: Anti-proliferative activity (IC50 ± standard deviation) PANC-1
Method in brief: as §2

[13] = system: 5637 cells; assay: CCK-8 anti-proliferative assay, 5637; assay type: cell-based, human; conditions: Homo sapiens; Table 10; co-incubated 48 h; read-out: Anti-proliferative activity (IC50 ± standard deviation) 5637
Method in brief: as §1

[14] = system: embryonic lung fibroblasts (WI-38); assay: CCK-8 anti-proliferative assay, normal cells WI-38; assay type: cell-based, human; conditions: Homo sapiens, WI-38, Table 13, co-incubated 48 h, read-out: Anti-proliferative activity (IC50 ± standard deviation) WI-38
Method in brief: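 Compound was added at final concentrations of 1 to 30 μM, in triplicate, to cells at 70% confluence (5,000 per well seeded). After co-incubation, CCK-8 was added for 1–4 h depending on the cell line. Inhibition from OD450 relative to untreated cells gave IC50.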

[15] = system: 143B cells; assay: CCK-8 anti-proliferative assay, 143B; assay type: cell-based, human; conditions: Homo sapiens, 143B
Method in brief: as §2

[16] = background; cited from earlier work
[17] = system: human pancreatic cancer BxPC-3; assay: BxPC-3 tumor-bearing nude mouse model; assay type: in vivo, nude mice
[18] = Table 11, co-incubated 48 h, read-out: Anti-proliferative activity (IC50 ± standard deviation) MG-63
[19] = Table 11, co-incubated 48 h, read-out: Anti-proliferative activity (IC50 ± standard deviation) 143B

IC50 [1] [µM] | IC50 [4] [µM] | IC50 [6] [µM] | IC50 [8] [µM] | IC50 [9] [µM] | IC50 [11] [µM] | IC50 [12] [µM] | SMILES | IC50 [2] [µM] | IC50 [3] [µM] | IC50 [5] [µM] | IC50 [7, 18] [µM] | IC50 [10] [µM] | IC50 [13] [µM] | IC50 [14] [µM] | IC50 [15, 19] [µM] | other results
7.37 | 10.3 ± 0.93 | 11.4 ± 0.76 | 5.12 ± 0.39 | 12.3 ± 0.92 | 11.3 ± 0.83 | 14.6 ± 0.78 | COc1cc2ncnc(NCc3cccc(NC(=O)Nc4ccc(Cl)cc4Cl)c3)c2cc1OCCCCCCN1CCC(CN2CCN(c3ccccn3)CC2)CC1 [Compound 8-2r, N-(3-(((7-methoxy-6-((6-(4-((4-(pyridin-2-yl)piperazin-1-yl)methyl)piperidin-1-yl)hexyl)oxy)quinazolin-4-yl)amino)methyl)phenyl)-N′-(2,4-dichlorophenyl)urea] | 7.02 ± 0.49 | 11.7 ± 0.96 | 4.73 ± 0.38 | 7.02 ± 0.58 | 8.41 ± 0.43 | 6.29 ± 0.37 | 7.72 ± 0.39 | 8.91 ± 0.77 | –
7.99 ± 0.68 | 9.72 ± 0.95 | 5.88 ± 0.57 | 7.73 ± 0.47 | 7.32 ± 0.85 | 6.02 ± 0.39 | 10.4 ± 0.62 | COc1cc2ncnc(NCc3cccc(NC(=O)Nc4c(Cl)cc(Cl)cc4Cl)c3)c2cc1OCCCCCCN1CCC(CN2CCN(c3ccccn3)CC2)CC1 [Compound 8-2s, N-(3-(((7-methoxy-6-((6-(4-((4-(pyridin-2-yl)piperazin-1-yl)methyl)piperidin-1-yl)hexyl)oxy)quinazolin-4-yl)amino)methyl)phenyl)-N′-(2,4,6-trichlorophenyl)urea] | 4.91 ± 0.55 | 10 ± 0.73 | 4.62 ± 0.33 | 11 ± 0.97 | 8.36 ± 1.62 | 4.87 ± 0.29 | 11.5 ± 0.62 | 5.94 ± 0.43 | –
7.29 ± 0.24 | 11.3 ± 0.73 | 5.94 ± 0.36 | 6.47 ± 0.25 | 11.8 ± 0.88 | 13.3 ± 0.84 | 15.6 ± 0.93 | COc1cc2ncnc(NCc3cccc(NC(=O)Nc4ccc(C(F)(F)F)cc4)c3)c2cc1OCCCCCCN1CCC(CN2CCN(c3ccccn3)CC2)CC1 [Compound 8-2t, N-(3-(((7-methoxy-6-((6-(4-((4-(pyridin-2-yl)piperazin-1-yl)methyl)piperidin-1-yl)hexyl)oxy)quinazolin-4-yl)amino)methyl)phenyl)-N′-(4-(trifluoromethyl)phenyl)urea] | 4.76 ± 0.45 | 6.79 ± 0.41 | 5.46 ± 0.41 | 11.7 ± 0.92 | 8.92 ± 0.49 | 7.32 ± 0.57 | 10.6 ± 0.64 | 9.42 ± 0.56 | –
> 30 | 25.4 ± 1.57 | 9.92 ± 0.86 | 14.1 ± 0.77 | 12.4 ± 1.43 | 15.6 ± 0.92 | > 30 | COc1cc2ncnc(NCc3cccc(NC(=O)Nc4ccc(F)c(C(F)(F)F)c4)c3)c2cc1OCCCCCCN1CCC(CN2CCN(c3ccccn3)CC2)CC1 [Compound 8-2u] | 14.3 ± 1.33 | 11.9 ± 0.66 | 12.9 ± 0.66 | 16 ± 1.07 | 23.1 ± 0.97 | 13.2 ± 0.78 | 15.9 ± 0.85 | 13.6 ± 0.92 | –
6.98 ± 0.83 | 14.9 ± 1.28 | 4.41 ± 0.27 | 4.73 ± 0.42 | 7.98 ± 0.92 | 5.49 ± 0.63 | 14.9 ± 0.79 | COc1cc2ncnc(NCc3cccc(NC(=O)Nc4ccc(Cl)c(C(F)(F)F)c4)c3)c2cc1OCCCCCCN1CCC(CN2CCN(c3ccccn3)CC2)CC1 [Compound 8-2v] | 4.97 ± 0.35 | 6.77 ± 0.69 | 11.1 ± 0.69 | 8.02 ± 0.79 | 7.33 ± 0.46 | 11.8 ± 0.95 | 8.71 ± 0.52 | 6.84 ± 0.59 | –
6.42 ± 0.56 | 15.5 ± 0.92 | 5.59 ± 0.46 | 5.92 ± 0.54 | 9.69 ± 0.72 | 5.16 ± 0.27 | 15.1 ± 0.66 | COc1cc2ncnc(NCc3cccc(NC(=O)Nc4cc(C(F)(F)F)cc(C(F)(F)F)c4)c3)c2cc1OCCCCCCN1CCC(CN2CCN(c3ccccn3)CC2)CC1 [Compound 8-2w, N-(3-(((7-methoxy-6-((6-(4-((4-(pyridin-2-yl)piperazin-1-yl)methyl)piperidin-1-yl)hexyl)oxy)quinazolin-4-yl)amino)methyl)phenyl)-N′-(3,5-bis(trifluoromethyl)phenyl)urea] | 5.87 ± 0.49 | 6.42 ± 0.16 | 7.84 ± 0.52 | 8.33 ± 0.81 | 7.19 ± 0.68 | 13.1 ± 0.67 | 9.49 ± 0.42 | 8.04 ± 0.45 | –
5.02 ± 0.49 | 11 ± 0.85 | 5.71 ± 0.54 | 4.07 ± 0.19 | 7.01 ± 0.62 | 6.23 ± 0.56 | 7.36 ± 0.42 | COc1cc2ncnc(NCc3cccc(NC(=O)NCc4ccccc4)c3)c2cc1OCCCCCCN1CCC(CN2CCN(c3ccccn3)CC2)CC1 [Compound 8-2y, N-(3-(((7-methoxy-6-((6-(4-((4-(pyridin-2-yl)piperazin-1-yl)methyl)piperidin-1-yl)hexyl)oxy)quinazolin-4-yl)amino)methyl)phenyl)-N′-benzylurea] | 5.92 ± 0.66 | 3.92 ± 0.24 | 4.13 ± 0.32 | 5.91 ± 0.46 | 8.96 ± 0.67 | 4.92 ± 0.31 | 9.89 ± 0.23 | 6.74 ± 0.52 | –
6.39 ± 0.68 | 10.3 ± 0.93 | 6.32 ± 0.49 | 5.33 ± 0.52 | 11.1 ± 0.83 | 8.69 ± 0.72 | 14.9 ± 0.98 | COc1cc2ncnc(NCc3cccc(NC(=O)NC4CCCCC4)c3)c2cc1OCCCCCCN1CCC(CN2CCN(c3ccccn3)CC2)CC1 [Compound 8-2z, N-(3-(((7-methoxy-6-((6-(4-((4-(pyridin-2-yl)piperazin-1-yl)methyl)piperidin-1-yl)hexyl)oxy)quinazolin-4-yl)amino)methyl)phenyl)-N′-cyclohexylurea] | 5.23 ± 0.52 | 3.71 ± 0.19 | 3.93 ± 0.22 | 4.05 ± 0.34 | 8.02 ± 0.81 | 3.96 ± 0.19 | 10.9 ± 0.59 | 4.77 ± 0.26 | IC50 ([7]; read-out: IC50 values, osteosarcoma cells MG-63): < 5 µM; IC50 ([15]; read-out: IC50 values, osteosarcoma cells 143B): < 5 µM
– | – | – | – | – | – | – | COc1cc(OC)cc(N(CCNC(C)C)c2ccc3ncc(-c4cnn(C)c4)nc3c2)c1 [Erda, erdafitinib] | – | – | – | – | – | – | – | – | Water solubility [16]: poor water solubility
– | – | – | – | – | – | – | Nc1ccn([C@@H]2O[C@H](CO)[C@@H](O)C2(F)F)c(=O)n1 [Gem, gemcitabine, reference compound] | – | – | – | – | – | – | – | – | Mice manifesting anorexia and emaciation after 4 doses ([17]; 24 mg/kg oral gavage): 50%; Nude mice that died within 16 d ([17]; 24 mg/kg oral gavage, n=6): 3 of 6; Toxicity observations ([17]; oral gavage, gemcitabine 24 mg/kg, 8-2h 12, 24, 36 mg/kg): significant gastrointestinal reactions
